Measurements: patent EP2368885A1, “Derivatives of phenazine useful to treat cancer” (Université de la Méditerranée (Aix-Marseille II), priority 2010, dated 2011)

System: MiaPaCa-2 cells
Test: not given
Conditions: not given

Molecule	Cytotoxicity (en %)
CCCCCCCCCCCCCCCC(=O)Oc1cc2nc3ccccc3nc2cc1OC(=O)CCCCCCCCCCCCCCC [compound 7, 2,3-diopalmitoylphenazine]	50 >X> 40
2-hydroxy-3-ethoxy-7-ethylcarboxyphenazine [compound 5]	X>50%
2,3-diethoxy-7-ethylcarboxyphenazine [compound 14]	20 > X > 10
2,3-dihydroxy-7,8-diamino(Boc)phenazine [compound 13]	30 >X> 25

System: MiaPaCa-2 cells
Test: MTT colorimetric cytotoxicity assay on pancreatic chemoresistant cancer MiaPaCa-2 cells
Conditions: 48 hours incubation, tested concentration not stated

Molecule	Cytotoxicity (en %)
CCCCCCCCCCCCOc1cc2nc3ccccc3nc2cc1OCCCCCCCCCCCC [compound 3, 2,3-didodecanoxyphenazine]	X>50%
CCCCCCCCCCCCOc1cc2nc3ccc(C(=O)NCCN(C)C)cc3nc2cc1OCCCCCCCCCCCC [compound 4, 2,3-didodecanoxy-7-dimethylaminoethylcarbamoylphenazine]	X > 50%
CCCCCCCCCCCCOc1cc2nc3cc(N)c(N)cc3nc2cc1OCCCCCCCCCCCC [compound 2, 2,3-didodecanoxy-7,8-diaminophenazine]	X>50%
CCCCCCCCCCCCOc1cc2nc3ccc(C(=O)O)cc3nc2cc1OCCCCCCCCCCCC [compound 1, 2,3-didodecanoxy-7-carboxyphenazine]	X>50%
